System: patients of the practice
Assay: second study: questionnaire on cardiac events in patients of the practice treated with finasteride vs control group
Type: in vivo, human
Conditions: 4 events over 242 patient-years; control 3.5%/yr.
Procedure: Finasteride was being administered at a dosage of a single oral 5 mg tablet a day. This is the same tablet used in treatment of BPH as disclosed in U.S. Pat. No. 5,175,155 and such dosage applies in the present invention. However, use of a 2 mg or 10 mg oral tablet is contemplated.
Two studies were undertaken to determine whether finasteride was, in fact, effective in lessening the incidence of heart disease and other complications of atherosclerosis.
In the second study patients of the practice were given a questionnaire. Various patients had been treated with finasteride for varying lengths of time. Only those on the drug for at least one year were considered. The average time on finasteride was 3 years. The number of cardiac events occurring in the patients taking finasteride was only 4 events over 242 patient-years. (1.6%/yr.) In the control group 26 events occurred in the 3 years prior over 732 patient-years. (3.5%/yr.)
The […] observed in cardiac events is believed to be significant. (90% Cl equal to 1.4% to 3.7%)

## CC(C)(C)NC(=O)[C@H]1CC[C@H]2[C@@H]3CC[C@H]4NC(=O)C=C[C@]4(C)[C@H]3CC[C@]12C [finasteride, 4-azaandrost-1-ene-17-carboxamide, N-(1,1-dimethylethyl)-3-oxo-(5a 17B)-]
  cardiac events per patient-year: 1.6 %/yr.

Reference: patent US20010048942A1, “Dutasteride to prevent and treat atherosclerosis” (priority 2000, published 2001)
